This is an account of results in patent publication US12264134B2 (Merck Sharp & Dohme LLC, priority 2018, dated 2025).

This test deals with IDO1 (Homo sapiens, UniProt P14902). Description: IDO1 Cellular Assay in HeLa Cells Stimulated with IFNγ. As to conditions: read-out: HeLa Cell Potency, IC50. It is filed as cell-based.
Chain of IDO1 (P14902 whole entry): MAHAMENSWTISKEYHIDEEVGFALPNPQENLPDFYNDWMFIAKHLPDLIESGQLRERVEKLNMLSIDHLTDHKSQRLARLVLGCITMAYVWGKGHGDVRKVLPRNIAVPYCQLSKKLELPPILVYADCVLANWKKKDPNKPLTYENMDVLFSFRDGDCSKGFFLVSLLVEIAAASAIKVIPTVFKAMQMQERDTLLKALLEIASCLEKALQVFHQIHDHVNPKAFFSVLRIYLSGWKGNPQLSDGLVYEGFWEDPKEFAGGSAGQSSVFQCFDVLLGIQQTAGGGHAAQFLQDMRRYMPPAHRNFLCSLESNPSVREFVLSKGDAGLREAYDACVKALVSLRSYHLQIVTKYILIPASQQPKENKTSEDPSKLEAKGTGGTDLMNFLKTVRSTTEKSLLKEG
For the compound `Cc1c(F)cccc1N1CCN(C(=O)Cn2nc(C(=O)N3C[C@@H](C)O[C@@H](C)C3)c3c2CCC3)CC1` [Example 77, 2-{3-[(2R,6S)-2,6-dimethylmorpholine-4-carbonyl]-5,6-dihydrocyclopenta[c]pyrazol-1(4H)-yl}-1-[4-(3-fluoro-2-methylphenyl)piperazin-1-yl]ethan-1-one], the IC50 turned out to be 18.3 nM.

As for `C[C@@H]1CN(C(=O)c2nn(CC(=O)N3CCN(c4cccc(Cl)c4F)CC3)c3c2CCC3)C[C@H](C)O1` [Example 78, 1-[4-(3-chloro-2-fluorophenyl)piperazin-1-yl]-2-{3-[(2R,6S)-2,6-dimethylmorpholine-4-carbonyl]-5,6-dihydrocyclopenta[c]pyrazol-1(4H)-yl}ethan-1-one], the IC50 came out at 38.2 nM.

With `C[C@@H]1CN(C(=O)c2nn(CC(=O)N3CCN(c4cccc5c4cnn5C)CC3)c3c2CCC3)C[C@H](C)O1` [Example 79, 2-{3-[(2R,6S)-2,6-dimethylmorpholine-4-carbonyl]-5,6-dihydrocyclopenta[c]pyrazol-1(4H)-yl}-1-[4-(1-methyl-1H-indazol-4-yl)piperazin-1-yl]ethan-1-one], the IC50 came to 83.1 nM.

For the compound `C[C@@H]1CN(C(=O)c2nn(CC(=O)N3CCN(c4cccc5c4CCC5)CC3)c3c2CCC3)C[C@H](C)O1` [Example 80, 1-[4-(2,3-dihydro-1H-inden-4-yl)piperazin-1-yl]-2-{3-[(2R,6S)-2,6-dimethylmorpholine-4-carbonyl]-5,6-dihydrocyclopenta[c]pyrazol-1(4H)-yl}ethan-1-one], the IC50 was 6.68 nM.

Consider `Cc1cccc(N2CCN(C(=O)Cn3nc(C(=O)N4CCC5(CC4)CN(C)C(=O)O5)c4c3CCC4)CC2)c1C` [Example 81, 8-(1-(2-(4-(2,3-dimethylphenyl)piperazin-1-yl)-2-oxoethyl)-1,4,5,6-tetrahydrocyclopenta[c]pyrazole-3-carbonyl)-3-methyl-1-oxa-3,8-diazaspiro[4.5]decan-2-one], for which the IC50 came to 5.8 nM.

Regarding `Cc1cccc(N2CCN(C(=O)Cn3nc(C(=O)N4CCC(C)(O)CC4)c4c3CCC4)CC2)c1C` [Example 82, 1-[4-(2,3-dimethylphenyl)piperazin-1-yl]-2-[3-(4-hydroxy-4-methylpiperidine-1-carbonyl)-5,6-dihydrocyclopenta[c]pyrazol-1(4H)-yl]ethan-1-one], the IC50 stood at 2.75 nM.

For `Cc1cccc(N2CCN(C(=O)Cn3nc(C(=O)N4CCC(=O)N(C)CC4)c4c3CCC4)CC2)c1C` [Example 84, 1-(1-{2-[4-(2,3-dimethylphenyl)piperazin-1-yl]-2-oxoethyl}-1,4,5,6-tetrahydrocyclopenta[c]pyrazole-3-carbonyl)-4-methyl-1,4-diazepan-5-one], the IC50 worked out at 15.6 nM.

For `Cc1cccc(N2CCN(C(=O)Cn3nc(C(=O)N4CCN(C(=O)CO)CC4)c4c3CCC4)CC2)c1C` [Example 85, 1-[4-(2,3-dimethylphenyl)piperazin-1-yl]-2-{3-[4-(hydroxyacetyl)piperazine-1-carbonyl]-5,6-dihydrocyclopenta[c]pyrazol-1(4H)-yl}ethan-1-one], the half-maximal inhibitory concentration (IC50) amounted to 26.5 nM.

With `COC(=O)N1CCN(C(=O)c2nn(CC(=O)N3CCN(c4cccc(C)c4C)CC3)c3c2CCC3)CC1` [Example 86, methyl 4-(1-{2-[4-(2,3-dimethylphenyl)piperazin-1-yl]-2-oxoethyl]-1,4,5,6-tetrahydrocyclopenta[c]pyrazole-3-carbonyl)piperazine-1-carboxylate], the IC50 amounted to 4.12 nM.

Turning to `Cc1cccc(N2CCN(C(=O)Cn3nc(C(=O)N4CC5CC4CC5O)c4c3CCC4)CC2)c1C` (stereo not drawn) [Example 96, 1-[4-(2,3-dimethylphenyl)piperazin-1-yl]-2-[3-(5-hydroxy-2-azabicyclo[2.2.1]heptane-2-carbonyl)-5,6-dihydrocyclopenta[c]pyrazol-1(4H)-yl]ethan-1-one], the IC50 amounted to 13.2 nM.

In the case of `Cc1cccc(N2CCN(C(=O)Cn3nc(C(=O)N4CC[C@H](O)[C@H](F)C4)c4c3CCC4)CC2)c1C` [Example 97, 1-[4-(2,3-dimethylphenyl)piperazin-1-yl]-2-{3-[(3R,4S)-3-fluoro-4-hydroxypiperidine-1-carbonyl]-5,6-dihydrocyclopenta[c]pyrazol-1(4H)-yl}ethan-1-one], the IC50 is 17.1 nM.

Regarding `Cc1cccc(N2CCN(C(=O)Cn3nc(C(=O)N4CC[C@@H](O)[C@@H](F)C4)c4c3CCC4)CC2)c1C` [Example 98, 1-[4-(2,3-dimethylphenyl)piperazin-1-yl]-2-{3-[(3S,4R)-3-fluoro-4-hydroxypiperidine-1-carbonyl]-5,6-dihydrocyclopenta[c]pyrazol-1(4H)-yl}ethan-1-one], the IC50 was 12.4 nM.

Turning to `Cc1cccc(N2CCN(C(=O)Cn3nc(C(=O)N4CC[C@H](O)[C@H](C)C4)c4c3CCC4)CC2)c1C` [Example 99, 1-[4-(2,3-dimethylphenyl)piperazin-1-yl]-2-{3-[(3R,4S)-4-hydroxy-3-methylpiperidine-1-carbonyl]-5,6-dihydrocyclopenta[c]pyrazol-1(4H)-yl}ethan-1-one], the IC50 amounted to 3.19 nM.

Turning to `Cc1cccc(N2CCN(C(=O)Cn3nc(C(=O)N4C[C@H]5CC[C@H](O)[C@H]5C4)c4c3CCC4)CC2)c1C` [Example 100, 1-[4-(2,3-dimethylphenyl)piperazin-1-yl]-2-{3-[(3aR,4S,6aS)-4-hydroxyhexahydrocyclopenta[c]pyrrole-2(1H)-carbonyl]-5,6-dihydrocyclopenta[c]pyrazol-1(4H)-yl}ethan-1-one], the IC50 worked out at 10.7 nM.

Take `Cc1cccc(N2CCN(C(=O)Cn3nc(C(=O)N4CCC(F)(CO)CC4)c4c3CCC4)CC2)c1C` [Example 102, 1-[4-(2,3-dimethylphenyl)piperazin-1-yl]-2-{3-[4-fluoro-4-(hydroxymethyl)piperidine-1-carbonyl]-5,6-dihydrocyclopenta[c]pyrazol-1(4H)-yl}ethan-1-one]: the 50% inhibitory concentration (IC50) was 4.38 nM.

On to `Cc1cccc(N2CCN(C(=O)Cn3nc(C(=O)N4CCOC(CO)C4)c4c3CCC4)CC2)c1C` (stereo not drawn) [Example 103, 1-[4-(2,3-dimethylphenyl)piperazin-1-yl]-2-{3-[2-(hydroxymethyl)morpholine-4-carbonyl]-5,6-dihydrocyclopenta[c]pyrazol-1(4H)-yl}ethan-1-one], for which the IC50 worked out at 18.3 nM.

In the case of `Cc1cccc(N2CCN(C(=O)Cn3nc(C(=O)N4CC[C@@H](O)[C@@H](O)C4)c4c3CCC4)CC2)c1C` [Example 104, 2-{3-[(3S,4R)-3,4-dihydroxypiperidine-1-carbonyl]-5,6-dihydrocyclopenta[c]pyrazol-1(4H)-yl}-1-[4-(2,3-dimethylphenyl)piperazin-1-yl]ethan-1-one], the IC50 was 49.6 nM.

As to `Cc1cccc(N2CCN(C(=O)Cn3nc(C(=O)N4CC5CCC4CO5)c4c3CCC4)CC2)c1C` (stereo not drawn) [Example 105, 1-[4-(2,3-dimethylphenyl)piperazin-1-yl]-2-[3-(2-oxa-5-azabicyclo[2.2.2]octane-5-carbonyl)-5,6-dihydrocyclopenta[c]pyrazol-1(4H)-yl]ethan-1-one], the IC50 came out at 34.5 nM.

In the case of `Cc1cccc(N2CCN(C(=O)Cn3nc(C(=O)N4CCC5(CC4)CC5(F)F)c4c3CCC4)CC2)c1C` [Example 110, 2-[3-(1,1-difluoro-6-azaspiro[2.5]octane-6-carbonyl)-5,6-dihydrocyclopenta[c]pyrazol-1(4H)-yl]-1-[4-(2,3-dimethylphenyl)piperazin-1-yl]ethan-1-one], the 50% inhibitory concentration (IC50) is 5.39 nM.

On to `Cc1cccc(N2CCN(C(=O)Cn3nc(C(=O)N4CCC(O)(c5ccccc5)CC4)c4c3CCC4)CC2)c1C` [Example 111, 1-[4-(2,3-dimethylphenyl)piperazin-1-yl]-2-[3-(4-hydroxy-4-phenylpiperidine-1-carbonyl)-5,6-dihydrocyclopenta[c]pyrazol-1(4H)-yl]ethan-1-one], for which the IC50 is 28.6 nM.

For the compound `Cc1cccc(N2CCN(C(=O)Cn3nc(C(=O)N4CCC(O)C5CCCCC54)c4c3CCC4)CC2)c1C` (stereo not drawn) [Example 112, 1-[4-(2,3-dimethylphenyl)piperazin-1-yl]-2-[3-(4-hydroxyoctahydroquinoline-1(2H)-carbonyl)-5,6-dihydrocyclopenta[c]pyrazol-1(4H)-yl]ethan-1-one], the IC50 came out at 3.6 nM.

`Cc1cccc(N2CCN(C(=O)Cn3nc(C(=O)N4CCC(O)(CN(C)C)CC4)c4c3CCC4)CC2)c1C` [Example 113, 2-[3-{4-[(dimethylamino)methyl]-4-hydroxypiperidine-1-carbonyl}-5,6-dihydrocyclopenta[c]pyrazol-1(4H)-yl]-1-[4-(2,3-dimethylphenyl)piperazin-1-yl]ethan-1-one]: the half-inhibitory concentration (IC50) came to 372 nM.

As for `Cc1cccc(N2CCN(C(=O)Cn3nc(C(=O)N4CCC5(CC4)COCC5O)c4c3CCC4)CC2)c1C` (stereo not drawn) [Example 114, 1-[4-(2,3-dimethylphenyl)piperazin-1-yl]-2-[3-(4-hydroxy-2-oxa-8-azaspiro[4.5]decane-8-carbonyl)-5,6-dihydrocyclopenta[c]pyrazol-1(4H)-yl]ethan-1-one], the IC50 came to 6.33 nM.

For the compound `Cc1cccc(N2CCN(C(=O)Cn3nc(C(=O)N4[C@@H](C)COC[C@@H]4C)c4c3CCC4)CC2)c1C` [Example 115, 2-{3-[(3S,5S)-3,5-dimethylmorpholine-4-carbonyl]-5,6-dihydrocyclopenta[c]pyrazol-1(4H)-yl}-1-[4-(2,3-dimethylphenyl)piperazin-1-yl]ethan-1-one], the IC50 came out at 176 nM.

`Cc1cccc(N2CCN(C(=O)Cn3nc(C(=O)N4CC5CCC4CC5)c4c3CCC4)CC2)c1C` [Example 116, 2-[3-(2-azabicyclo[2.2.2]octane-2-carbonyl)-5,6-dihydrocyclopenta[c]pyrazol-1(4H)-yl]-1-[4-(2,3-dimethylphenyl)piperazin-1-yl]ethan-1-one]: the IC50 came out at 11.6 nM.

As to `Cc1cccc(N2CCN(C(=O)Cn3nc(C(=O)N4CCN(C(=O)C(C)(C)O)CC4)c4c3CCC4)CC2)c1C` [Example 117, 1-[4-(1-{2-[4-(2,3-dimethylphenyl)piperazin-1-yl]-2-oxoethyl}-1,4,5,6-tetrahydrocyclopenta[c]pyrazole-3-carbonyl)piperazin-1-yl]-2-hydroxy-2-methylpropan-1-one], the IC50 came to 15.1 nM.

As for `Cc1cccc(N2CCN(C(=O)Cn3nc(C(=O)N4CCCC(O)CC4)c4c3CCC4)CC2)c1C` (stereo not drawn) [Example 118], the IC50 amounted to 13.9 nM.

By IC50 is commonly meant the concentration that inhibits the measured activity by half.
